Measured values as given in patent US4257941A, “Polycyclic nitrogen-containing compounds” (BASF Aktiengesellschaft, priority 1976, dated 1981).
Counter-ions that a name gives are not always drawn.

Tested on: lawns
Experiment: Long-term action on lawns (Example 14)
Type: in vivo
Details: for First cutting, green weight relative / First cutting, growth height relative / Second cutting, green weight relative / Second cutting, growth height relative / Third cutting, green weight relative: control 100

| SMILES | First cutting, green weight (0.5 kg/ha) | First cutting, growth height (0.5 kg/ha) | Second cutting, green weight (0.5 kg/ha) | Second cutting, growth height (0.5 kg/ha) | Third cutting, green weight (0.5 kg/ha) | First cutting, green weight relative (0.5 kg/ha) | First cutting, growth height relative (0.5 kg/ha) | Second cutting, green weight relative (0.5 kg/ha) | Second cutting, growth height relative (0.5 kg/ha) | Third cutting, green weight relative (0.5 kg/ha) | First cutting, green weight (1.0 kg/ha) | First cutting, growth height (1.0 kg/ha) | Second cutting, green weight (1.0 kg/ha) | Second cutting, growth height (1.0 kg/ha) | Third cutting, green weight (1.0 kg/ha) | First cutting, green weight relative (1.0 kg/ha) | First cutting, growth height relative (1.0 kg/ha) | Second cutting, green weight relative (1.0 kg/ha) | Second cutting, growth height relative (1.0 kg/ha) | Third cutting, green weight relative (1.0 kg/ha) | further results |
| --- | --- | --- | --- | --- | --- | --- | --- | --- | --- | --- | --- | --- | --- | --- | --- | --- | --- | --- | --- | --- | --- |
| Fc1ccc(N2N=NC3C4CC(C5N=NC45)C32)cc1 (stereo not drawn) | 23.1 g | 15.0 cm | 21.8 g | 10.0 cm | 14.6 g | 65.4 | 83.3 | 81.6 | 68.0 | 96.1 | 20.5 g | 12.5 cm | 21.4 g | 9.0 cm | 13.5 g | 58.1 | 69.5 | 80.1 | 61.2 | 88.8 | First cutting, green weight (2.0 kg/ha): 9.8 g; First cutting, growth height (2.0 kg/ha): 7.5 cm; Second cutting, green weight (2.0 kg/ha): 10.1 g; Second cutting, growth height (2.0 kg/ha): 5.0 cm; Third cutting, green weight (2.0 kg/ha): 9.5 g; First cutting, green weight relative (2.0 kg/ha): 27.8; First cutting, growth height relative (2.0 kg/ha): 41.7; Second cutting, green weight relative (2.0 kg/ha): 37.8; Second cutting, growth height relative (2.0 kg/ha): 34.0; Third cutting, green weight relative (2.0 kg/ha): 62.5; First cutting, green weight (4.0 kg/ha): 7.9 g; First cutting, growth height (4.0 kg/ha): 6.5 cm; Second cutting, green weight (4.0 kg/ha): 7.1 g; Second cutting, growth height (4.0 kg/ha): 2.0 cm; Third cutting, green weight (4.0 kg/ha): 7.9 g; First cutting, green weight relative (4.0 kg/ha): 22.4; First cutting, growth height relative (4.0 kg/ha): 36.1; Second cutting, green weight relative (4.0 kg/ha): 26.6; Second cutting, growth height relative (4.0 kg/ha): 13.6; Third cutting, green weight relative (4.0 kg/ha): 52.0 |
| Cc1ccccc1N1N=NC2C3CC(C4N=NC34)C21 (stereo not drawn) | 26.8 g | 14.0 cm | 23.5 g | 13.0 cm | 16.5 g | 75.9 | 77.8 | 88.0 | 88.4 | 108.6 | 25.5 g | 14.0 cm | 22.0 g | 12.5 cm | 16.3 g | 72.2 | 77.8 | 82.4 | 85.0 | 107.2 | First cutting, green weight (2.0 kg/ha): 20.0 g; First cutting, growth height (2.0 kg/ha): 12.5 cm; Second cutting, green weight (2.0 kg/ha): 21.4 g; Second cutting, growth height (2.0 kg/ha): 22.0 cm; Third cutting, green weight (2.0 kg/ha): 15.7 g; First cutting, green weight relative (2.0 kg/ha): 56.7; First cutting, growth height relative (2.0 kg/ha): 69.5; Second cutting, green weight relative (2.0 kg/ha): 80.1; Second cutting, growth height relative (2.0 kg/ha): 74.8; Third cutting, green weight relative (2.0 kg/ha): 103.3; First cutting, green weight (4.0 kg/ha): 13.2 g; First cutting, growth height (4.0 kg/ha): 9.5 cm; Second cutting, green weight (4.0 kg/ha): 15.3 g; Second cutting, growth height (4.0 kg/ha): 7.5 cm; Third cutting, green weight (4.0 kg/ha): 13.9 g; First cutting, green weight relative (4.0 kg/ha): 37.4; First cutting, growth height relative (4.0 kg/ha): 52.8; Second cutting, green weight relative (4.0 kg/ha): 57.3; Second cutting, growth height relative (4.0 kg/ha): 51.0; Third cutting, green weight relative (4.0 kg/ha): 91.4 |
| CC(=O)Nc1ccc(C)c(NS(=O)(=O)C(F)(F)F)c1 [S, diethanolamine salt of 3-trifluoromethylsulfonamido-p-acetotoluidide, reference compound] | 26.7 g | 14.5 cm | 27.3 g | 14.0 cm | 15.6 g | 75.6 | 80.6 | 102.2 | 95.2 | 102.6 | 23.0 g | 13.0 cm | 27.6 g | 12.5 cm | 15.0 g | 65.2 | 72.2 | 103.4 | 85.0 | 98.6 | First cutting, green weight (2.0 kg/ha): 12.6 g; First cutting, growth height (2.0 kg/ha): 10.5 cm; Second cutting, green weight (2.0 kg/ha): 20.1 g; Second cutting, growth height (2.0 kg/ha): 9.5 cm; Third cutting, green weight (2.0 kg/ha): 13.7 g; First cutting, green weight relative (2.0 kg/ha): 35.7; First cutting, growth height relative (2.0 kg/ha): 58.3; Second cutting, green weight relative (2.0 kg/ha): 75.3; Second cutting, growth height relative (2.0 kg/ha): 64.6; Third cutting, green weight relative (2.0 kg/ha): 90.1; First cutting, green weight (4.0 kg/ha): 9.4 g; First cutting, growth height (4.0 kg/ha): 9.0 cm; Second cutting, green weight (4.0 kg/ha): 9.6 g; Second cutting, growth height (4.0 kg/ha): 4.5 cm; Third cutting, green weight (4.0 kg/ha): 10.4 g; First cutting, green weight relative (4.0 kg/ha): 26.6; First cutting, growth height relative (4.0 kg/ha): 50.0; Second cutting, green weight relative (4.0 kg/ha): 36.0; Second cutting, growth height relative (4.0 kg/ha): 30.6; Third cutting, green weight relative (4.0 kg/ha): 68.4 |
